“Also recorded” adds a separate entry of the source.
Legend:
[1] = In vitro permeability study in 6 station Franz diffusion cell apparatus using porcine buccal mucosa; conditions: for effect of acidifying agent in film formulation on permeation of psilocybin through pig mucosa membrane: psilocybin around its isoelectric point (pH=3.9)
[2] = cited from earlier work
[3] = administered orally; cited from earlier work

Compound: O=P(O)(O)O [phosphoric acid]
- effect of acidifying agent in film formulation on permeation of psilocybin through pig mucosa membrane [1]: triggers permeation

Compound: Benzalkonium chloride [Benzalkonium chloride (BKC)]
- effect of penetration enhancer on psilocybin diffusion through porcine buccal mucosa ([1]; penetration enhancer in psilocybin film formulation, FIG. 4 and FIG. 5): improved buccal permeation; also recorded: significate increase

Compound: CN(C)CCc1c[nH]c2cccc(OP(=O)(O)O)c12 [psilocybin, [3-(2-Dimethylaminoethyl)-1H-indol-4-yl]dihydrogen phosphate]
- pka1 ([2]; first phosphate oxygen): 1.3
- pka2 ([2]; second phosphate oxygen): 6.5
- pka3 ([2]; tertiary amine group): 10.4
- drug absorbed into the bloodstream [3]: about 50%
- time of maximum plasma concentration [3]: approximately 80 minutes

Compound: O=C(O)CC(O)(CC(=O)O)C(=O)O [citric acid]
- effect of acidifying agent in film formulation on permeation of psilocybin through pig mucosa membrane [1]: triggers permeation

From patent US20240189331A1, “NOVEL […] FILM FORMULATION” (INTELGENX CORP., priority 2021, published 2024)
